Molecules are shown by their SMILES. pKd: −log10 of the molar value.

This experiment addresses Transthyretin (Homo sapiens) (UniProt P02766). The experiment is described as follows: Induction of stability of human recombinant interleukin 2 assessed as binding affinity of drug-conjugated rIL2 to human TTR in PBS buffer at pH 7.4 measured after 20 mins fluorescence polarization assay. (In general: Fluorescence polarisation rises when a labelled molecule tumbles more slowly, as on binding a larger partner.)

Consider `Cc1n[nH]c(C)c1CCCOc1cc(OCCCc2cn(CCOCCOCCOCCOCCNC(=O)C3CCC(CN4C(=O)C=CC4=O)CC3)nn2)cc(C(=O)O)c1` (stereo unspecified), for which the negative-log Kd (pKd) – broadly, the Kd on a negative log10 scale, so that one unit is a factor of ten – is 6.07.
